Our source for the Km, kcat and kcat/K0.5 values is patent EP4309500B1, “PEROXIDASE BASED BIOCONTROL AGENTS” (Acies Bio d.o.o., priority 2022, dated 2024).

Assay [1] concerns LspPOX, peroxidase from Lyngbya sp. (strain PCC 8106), mature protein amino acids 117-661 of SEQ ID NO: 12. The settings on record: ABTS 0.025 - 5 mM, 6.45 nM peroxidase, 100 µM H2O2, 50 mM sodium acetate buffer pH 5.0, 25 °C (Example 12). The protocol: (§1) The assays were performed in triplicates on a TECAN microtiter plate reader in a total of 200 µL. […] The oxidation reaction was read for 30 min at 25 °C.

The test system of assay [2] is HydPOXs, HydPOX peroxidase without proregion (amino acids 117 to 659 of SEQ ID NO: 1), SEQ ID NO: 18. The settings on record: ABTS 0.025 - 5 mM, 6.45 nM peroxidase, 100 µM H2O2, 50 mM sodium acetate buffer pH 5.0, 25 °C (Example 12). The protocol: as §1
In assay [3] the test system is LspPOX, peroxidase from Lyngbya sp. (strain PCC 8106), mature protein amino acids 117-661 of SEQ ID NO: 12. The settings on record: ABTS 0.025 - 10 mM, 10 nM peroxidase, 100 µM H2O2, 50 mM phosphate buffer pH 6.0, 25 °C, optimized fitting (Example 4.1). The protocol: (§2) The reaction in presence of H2O2 can be easily measured on microplate reader.
The oxidation reaction was read for 30 min at 25 °C.

Assay [4] has the same test system. The settings on record: ABTS 0.025 - 10 mM, 10 nM peroxidase, H2O2, 50 mM phosphate buffer pH 6.0, 25 °C (Example 4). The method, then:
as §2
The oxidation reaction was read for 30 min at 25 °C. […] The concentration of the added H2O2 solution was 200 µM.

The test system of assay [5] is HydPOXs, HydPOX peroxidase without proregion (amino acids 117 to 659 of SEQ ID NO: 1), SEQ ID NO: 18. The settings on record: KI 0.03 - 4 mM, 0.1 mM H2O2, 100 µM thymol blue, 1 µg/ml peroxidase, 0.1 M phosphate buffer pH 7.2, room temperature (Example 13).
Protocol: (§3) The bacterial peroxidases (HydPOX, HydPOXs, OkePOXs) were compared to LpoPOX and LspPOX under these modified conditions.
(§4) The enzymatic reactions were performed at room temperature for 30 min in clear flat-bottomed microplate wells containing 200 µl 0.1 M phosphate buffer pH 7.2, 100 µM thymol blue, 1 µg/ml of recombinant bacterial peroxidase (or commercial LpoPOX as defined in SEQ ID NO: 16), H2O2 and a reducing agent such as I^- (general assay setup).
(§5) Kinetic constants were calculated using a nonlinear regression fitting curve (Figure 9A). […] For this reason, K0.5 values are used indicating the substrate concentration at which half maximal velocity/half-saturation is achieved.
The test system of assay [6] is OkePOXs, functional fragment of OkePOX heme peroxidase from Okeania hirsuta (amino acids 117 to 659 of SEQ ID NO: 11), SEQ ID NO: 25 or 27. The settings on record: KI 0.03 - 4 mM, 0.1 mM H2O2, 100 µM thymol blue, 1 µg/ml peroxidase.
Protocol: as §3, §4, §5
The subject of assay [7] is LspPOX, peroxidase from Lyngbya sp. (strain PCC 8106), mature protein amino acids 117-661 of SEQ ID NO: 12. Nature of the assay: Thymol blue assay (halogenation assay), kinetics at 0.1 mM H2O2 (Example 13). The assay is classed as biochemical, Lyngbya sp. PCC 8106. The settings on record: KI 0.03 - 4 mM, 0.1 mM H2O2, 100 µM thymol blue, 1 µg/ml peroxidase.
Protocol: as §3, §4, §5
Assay [8] addresses T1, LpoPOX, bovine lactoperoxidase, commercial protein, SEQ ID NO: 16 (lacks the propeptide region) (Bos taurus, UniProt P80025).
T1 construct: purchased
Described as above. The assay is classed as biochemical. The settings on record: KI 0.03 - 4 mM, 0.1 mM H2O2, 100 µM thymol blue, 1 µg/ml peroxidase.
Protocol: as §3, §4, §5

[9] abbreviates: 0.1 M phosphate buffer pH 7.2, room temperature (Example 13).
Where [10] appears, read: 0.1 M phosphate buffer pH 7.2, room temperature, sigmoidal fitting (Example 13), 30 min, read-out: K0.5.

Structures are written as SMILES. Like-named read-outs stand apart in the source and are kept apart here.

`CCn1c(=NN=c2sc3cc(S(=O)(=O)O)ccc3n2CC)sc2cc(S(=O)(=O)O)ccc21` [ABTS, 2,2'-azino-bis (3-ethylbenzothiazoline-6-sulfonic acid)]: the values for the Km in assay [1], in assay [3] and in assay [4] were 1090 µM, 180 µM and 237 µM, respectively. Also, the kcat in assay [1] was 57 s^1; in assay [2], 95 s^1; in assay [3], 6.3 s⁻¹; in assay [4] it was 7,45 s^-1.
On to `[I-].[K+]` [KI, potassium iodide], for which the kcat in assay [5] is 10.6 s⁻¹; in assay [6] (setting [9]), 13.7 s⁻¹; in assay [7] (setting [9]), 14.7 s⁻¹; in assay [8] (setting [9]), 16.5 s⁻¹. Moreover, the kcat/K0.5 came out at 85100 M⁻¹ s⁻¹ in assay [5], 118600 M⁻¹ s⁻¹ in assay [6] (setting [9]), 10600 M⁻¹ s⁻¹ in assay [7] (setting [9]) and 12500 M⁻¹ s⁻¹ in assay [8] (setting [9]). Besides, the Km in assay [6] (read-out: K0.5, 0.1 M phosphate buffer pH 7.2, room temperature, sigmoidal fitting (Example 13), 30 min) amounted to 120 µM; in assay [7] (setting [10]), 1390 µM; in assay [8] (setting [10]), 1320 µM.
